Test: oral application of conjugated fatty acids: appetite, satiety and food intake
Type: in vivo
Conditions: for appetite-reducing effect compared with other CLA isomers and non-conjugated linoleic acid: comparison of isomers

| Compound | effect on appetite, satiety and food intake (oral application) | appetite-reducing effect compared with other CLA isomers and non-conjugated linoleic acid | appetite-reducing effect compared with other CLA isomers and non-conjugated linoleic acid (listed as cis-9,trans-11 isomer of conjugated linoleic acid) |
| --- | --- | --- | --- |
| conjugated linoleic acid [CLA] | reduction of appetite |  |  |
| CCCCCC/C=C/C=C\CCCCCCCC(=O)O (single isomer, unassigned) [cis-9,trans-11 CLA-isomer, cis-9,trans-11 isomer of conjugated linoleic acid] |  | most efficacious in inhibiting appetite | more pronounced |
